“Also recorded” adds a separate entry of the source.
Legend:
cytochrome C mRNA = test: qPCR primary human hepatocytes, cytochrome C mRNA; format: cell-based; settings: NCT 5, 15, 40 μM
Procedure: (§1) Experiments with primary human hepatocytes were performed by CN-Bio (Cambridge, UK). Briefly, primary human hepatocytes (PHHs), human Kupffer cells (HKs) and human stellate cells (HSCs) were seeded onto CN-Bio's PhysioMimix LC12 MPS culture plates at 6×10^5 cells for PHHs and 6×10^4 cells for HKs and HSCs in 1.6 ml of CN-Bio's HEP-lean media with 5% FCS. Throughout the experiment the cells were maintained at a flow rate of 1 μl/s. After 24 hours (Day 1) of seeding, the media was changed to HEP-lean media and the cells were incubated until day 4 to allow the cells to form microtissues. At day 4 post seeding, media was changed to HEP-fat media and treated with DMSO or NCT (5, 15, 40 μM). Media was replaced on days 6 and 8. Cells were harvested on day 10 for RNA extraction and culture media was collected for ELISA analysis.
(§2) Total RNA was isolated from liver tissues and primary human hepatocytes using Trizol (Invitrogen). cDNA was amplified using 3 μg of total RNA using qScript cDNA SuperMix (Quanta BioSciences, Beverly, MA, USA). Quantitative real time PCR (RT-PCR) analysis was performed using SYBR® Select Master Mix (Applied Biosystems) and an ABI 7900HT thermal cycler (Applied Biosystems, Thermo Fisher Scientific). Ct values were normalized to 18s rRNA and are expressed as fold change over samples from mice fed NC or cultured human hepatocytes without NCT.

PPARGC1A (PGC1α) mRNA = test: RNA-seq of livers of mice treated for 2 weeks with NCT; format: in vivo, mouse; settings: livers of mice treated for 2 weeks (GEO 174848)
Text: The ability of NCT to increase mitochondrial mass raised the question of the mechanism by which that occurred. […] PPARGC1A plays an important role in mitochondrial biogenesis but is not known to be regulated by HNF4α. […]

IL-6 mRNA = test: qPCR primary human hepatocytes, IL-6 mRNA; format: cell-based; settings: NCT 5, 15, 40 μM
Procedure: as §1, §2

[1] = tested on: succinate dehydrogenase (SDHA); test: Western blot, mouse liver, SDHA; format: in vivo; settings: HFD+NCT vs HFD
Procedure: Mouse liver extracts were prepared by incubation in RIPA buffer (Invitrogen) containing protease inhibitors (Calbiochem, San Diego, CA). Protein was quantified by BCA assay (Thermo Scientific). Protein ([…] for cytochrome C) was separated on 12% or 16% Tri-Glycine gels (Invitrogen) and transferred to Immobilon P membrane (0.2 μm pore size, Millipore). After 1 hour in phosphate-buffered saline-Tween (PBST) with 3% milk, membranes were incubated with antibodies to PPARGC1A(PGC1α) (Cat #NBP1-04676, Novus, 1:1000), SDHA XP (Cat #11998, Cell Signaling 1:1000), or Cytochrome C (Cat #4280, Cell Signaling 1:500), followed by secondary antibody conjugated to horseradish peroxidase (1:5000, Jackson Immune or Cell Signaling). […] After detection, membrane was incubated with Ponceau S solution (Sigma) for 1 hr for normalization to loaded protein.

[2] = Oral gavage delivery of NCT to DIO mice; format: in vivo, mouse
Procedure: 12-week-old C57BL/6J DIO male mice were purchased from Jackson laboratory (cat #380050) and were fed with high fat diet (Research Diets, cat #D12492 60 kcal % fat). […] 14 week old mice were injected subcutaneously using sterile insulin syringes filled with DMSO or NCT (200 mg/kg of mouse body weight) bid for 2 weeks. For oral gavage, 14-week-old C57BL/6J DIO male mice were fed by oral gavage using a feeding needle attached to a sterile 1 ml syringe filled with 200 μL of methyl cellulose (MC, vehicle control) or 200 μL of NCT (200 mg/kg) dissolved in methyl cellulose twice a day for 2 weeks. […] For analysis all mice were sacrificed after 2 weeks of treatment.

SDHA mRNA = test: qPCR mouse liver, SDHA mRNA; format: in vivo; settings: HFD+NCT vs HFD
Procedure: as §2

Parp2 mRNA = test: qPCR mouse liver, Parp2 mRNA; format: in vivo; settings: HFD+NCT vs HFD
Procedure: as §2

T6PNE cells = test: Nitric oxide assay, T6PNE cells treated with palmitate; format: cell-based; settings: palmitate plus 15 μM NCT, 3 days, normalized to protein
Procedure: T6PNE cells were maintained in RPMI (5.5 mM glucose, Corning) supplemented with 10% fetal bovine serum (FBS, Sigma-Aldrich) and 1% penicillin-streptomycin (pen-strep, Gibco) in 5% CO2 at 37° C. Cells were treated with […] palmitate plus 0 or 15 μM NCT for 3 days in 10 cm plates and harvested with 500 μl PBS. For tissue specimens, snap frozen mouse liver was weighed and homogenized with PBS. NO was measured with the QuantiChrom Nitric Oxide Assay kit (D2NO-100, BioAssay Systems). Homogenized samples (150 μl) were processed for deproteination with 8 μl ZnSO4 and 8 μl NaOH. For normalization, an aliquot of samples from T6PNE cells was taken for BCA assay before deproteination. Samples and standard from kit incubated with reagents for 20 min at 60° C. and measured OD 540 nm.
Palmitate (150 mM) (Sigma-Aldrich) was prepared in 50% ethanol and precomplexed with 15% fatty acid-free BSA (Research Organics, Cleveland, OH, USA) in a 37° C. water shaker. […] precomplexed palmitate was used as a 12 mM stock solution for all assays with a final concentration of 0.12 mM palmitate in cell culture medium.

[3] = Liver profile analysis of blood (VetScan); format: in vivo, mouse
Procedure: Mice were anesthetized and 100 μL of whole blood was collected via retro-orbital bleeding in lithium heparin blood collection tubes and transferred to single use VetScan mammalian liver profile reagent rotors. The levels of multiple analytes, including Alkaline Phosphatase (ALP), Alanine Aminotransferase (ALT), Gamma Glutamyl Transferase (GGT), Bile Acids (BA), TBIL (Total Bilirubin), Albumin (ALB), Blood Urea Nitrogen […] (BUN), Total Cholesterol (CHOL) were quantified using a VetScan VS2 Chemistry Analyzer (Abaxis North America, USA).

Microsomal stability = format: in vitro ADME; settings: human microsomes compared with rodent
Parp1 mRNA = test: qPCR mouse liver, Parp1 mRNA; format: in vivo; settings: HFD+NCT vs HFD
Procedure: as §2

citrate synthase = test: Citrate synthase activity in liver homogenate; format: in vivo, mouse; settings: HFD+NCT vs HFD
Procedure: Citrate synthase activity in liver homogenate was measured according to manufacturer's instructions using a calorimetry based MitoCheck Citrate Synthase Activity Assay Kit (Cat #701040, Cayman Chemicals, USA).

O=C(/C=C/c1ccc(O)c(O)c1)NCCc1ccc(O)cc1 [NCT, N-transcaffeoyltyramine]
cytochrome C mRNA in primary human hepatocytes (cytochrome C mRNA): but not cytochrome C
increase in PPARGC1A (PGC1α) mRNA (PPARGC1A (PGC1α) mRNA): approximately 6 fold
IL-6 mRNA in cultured human hepatocytes (IL-6 mRNA): reduced
hepatic succinate dehydrogenase protein level (HFD-induced decrease) [1]: reversed
liver color after oral gavage NCT ([2]; 200 mg/kg bid, 2 weeks, vs methyl cellulose): No difference in liver color
outcome of oral gavage delivery ([2]; 200 mg/kg in methyl cellulose, 2 doses per day, 2 weeks): compound precipitation
NCT compound level in serum and stool ([2]; following oral gavage 200 mg/kg bid): present in stool but not serum
SDHA mRNA in mouse liver (SDHA mRNA): increased
Parp2 mRNA level (Parp2 mRNA): not modulated
nitric oxide (NO) in cultured cells treated with palmitate (T6PNE cells): decreased
other components of the liver profile panel ([3]; HFD versus HFD+NCT): no difference
blood ALP ([3]; HFD+NCT vs HFD): unchanged
blood ALT level ([3]; HFD+NCT vs HFD): reduced; also recorded: significantly decreased
microsomal stability, human versus rodent microsomes (Microsomal stability): much more stable
Parp1 mRNA level (Parp1 mRNA): not modulated
citrate synthase activity (HFD-induced decrease) (citrate synthase): reversed; also recorded: substantial reversal
